In one test the target is T1, PKB-PIF fusion protein (Homo sapiens, UniProt P31751).
T1 construct: PIF (fusion partner); made in house
The experiment in a line: Measurement of PKB kinase inhibitory activity (IC50), radiometric filter plate assay. In kind it is biochemical. The note with it: 0.6 nM enzyme, 30 μM ATP, AKTide-2T substrate, 20 minutes. The text has this:
The inhibition of protein kinase B (PKB) activity by compounds can be determined essentially as described by Andjelkovic et al. (Mol. Cell. Biol. 19, 5061-5072 (1999)) but using a fusion protein described as PKB-PIF and described in full by Yang et al (Nature Structural Biology 9, 940-944 (2002)). The protein is purified and activated with PDK1 as described by Yang et al. The peptide AKTide-2T (H-A-R-K-R-E-R-T-Y-S-F-G-H-H-A-OH) obtained from Calbiochem (#123900) is used as a substrate. A final concentration of 0.6 nM enzyme is used in a buffer that includes 20 mM MOPS pH 7.2, 30 μM ATP/γ^33P-ATP and 25 µM substrate. Compounds are added in DMSO solution to a final DMSO concentration of 2.5%. The reaction is allowed to proceed for 20 minutes before addition of excess orthophosphoric acid to quench activity. The reaction mixture is transferred to a phosphocellulose filter plate where the peptide binds and the unused ATP is washed away. After washing, scintillant is added and the incorporated activity measured by scintillation counting.
The % inhibition of the PKB activity is calculated and plotted in order to determine the concentration of test compound required to inhibit 50% of the PKB activity (IC50).

Test [1] concerns phosphorylation of Serine-9 residue in Glycogen Synthase Kinase-3beta as surrogate marker of cellular PKB (Akt) activity. The test is described as follows: In vitro MDA-MB-468 human breast adenocarcinoma GSK-3 phosphorylation assay. In kind it is cell-based. The note with it: MDA-MB-468 cells, 2 hours compound incubation, mean IC50, read-out: Cell pGSK3b IC50. The procedure, abridged:
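MDA-MB-468 cells (5000/well) were treated with compound for 2 h at 37° C, then fixed and immunostained for phospho-Ser9 GSK-3β with an Alexa Fluor 488 secondary antibody. Fluorescence was quantified on an Acumen Explorer. IC50 came from a background-corrected 4-parameter logistic fit with minimum set to zero; obvious outliers were excluded from means.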

A further test deals with T2, PKA catalytic domain (Homo sapiens, UniProt P17612).
T2 construct: using the PKA catalytic domain from Upstate Biotechnology (#14-440); purchased Upstate Biotechnology 14-440
The test is described as follows: Measurement of PKA kinase inhibitory activity (IC50), radiometric filter plate assay. In kind it is biochemical. The note with it: 1 nM enzyme, 40 μM ATP, 20 minutes. As for the experimental part: Compounds of the invention can be tested for PK inhibitory activity using the PKA catalytic domain from Upstate Biotechnology (#14-440) and the 9 residue PKA specific peptide (GRTGRRNSI), also from Upstate Biotechnology (#12-257), as the substrate. A final concentration of 1 nM enzyme is used in a buffer that includes 20 mM MOPS pH 7.2, 40 μM ATP/γ^33P-ATP and […] substrate. Compounds are added in dimethylsulphoxide (DMSO) solution to a final DMSO concentration of 2.5%. The reaction is allowed to proceed for 20 minutes before addition of excess orthophosphoric acid to quench activity. Unincorporated γ^33P-ATP is then separated from phosphorylated proteins on a Millipore MAPH filter plate. The plates are washed, scintillant is added and the plates are then subjected to counting on a Packard Topcount.
The % inhibition of the PKA activity is calculated and plotted in order to determine the concentration of test compound required to inhibit 50% of the PKA activity (IC50).

T1 sequence (P31751 with tags, fused parts or gaps limits assumed): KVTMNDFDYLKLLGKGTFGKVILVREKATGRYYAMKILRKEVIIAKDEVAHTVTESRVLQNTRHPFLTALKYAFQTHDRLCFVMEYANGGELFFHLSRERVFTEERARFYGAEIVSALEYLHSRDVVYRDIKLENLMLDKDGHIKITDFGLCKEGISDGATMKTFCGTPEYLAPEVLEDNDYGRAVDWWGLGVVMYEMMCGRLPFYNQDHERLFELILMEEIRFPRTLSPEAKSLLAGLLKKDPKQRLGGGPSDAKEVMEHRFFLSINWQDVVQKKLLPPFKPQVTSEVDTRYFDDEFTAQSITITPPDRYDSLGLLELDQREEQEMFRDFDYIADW

As usually defined, the IC50 is the concentration that inhibits the measured activity by half. As to `Cc1ccc2nc(C3(N)CCN(c4ncnc5[nH]cnc45)CC3)[nH]c2c1` [Example 17, 4-(6-Methyl-1H-benzoimidazol-2-yl)-1-(9H-purin-6-yl)-piperidin-4-ylamine], the half-maximal inhibitory concentration (IC50) on PKB-PIF fusion protein is less than 100 nM; in test [1], 320 nM; on PKA catalytic domain it was less than 1000 nM.

As for `NC1(c2nc3ccc(F)cc3[nH]2)CCN(c2ncnc3[nH]ccc23)CC1` [Example 6, 4-(6-Fluoro-1H-benzoimidazol-2-yl)-1-(7H-pyrrolo[2,3-d]pyrimidin-4-yl)-piperidin-4-ylamine], the 50% inhibitory concentration (IC50) is less than 100 nM at PKB-PIF fusion protein, 560 nM in test [1] and less than 1000 nM against PKA catalytic domain.

These data come from patent publication US20100093748A1, “SUBSTITUTED PIPERIDINES HAVING PROTEIN KINASE INHIBITING ACTIVITY” (ASTEX THERAPEUTICS LIMITED, priority 2006, published 2010).
